Legend:
KRas^G12D = molecular target: T1, KRas^G12D (Homo sapiens, UniProt P01116, G12D); assay: KRas binding assay (TR-FRET tracer displacement), KRas G12D
T1 construct: Biotinylated KRas (corresponding to amino acids 1-169, produced at Accelegan Inc.); biotin (biotinylated); purchased Accelegan Inc

KRas^G12R = molecular target: T2, KRas^G12R (Homo sapiens, UniProt P01116, G12R); assay: KRas binding assay (TR-FRET tracer displacement), KRas G12R
T2 construct: Biotinylated KRas (corresponding to amino acids 1-169, produced at Accelegan Inc.); biotin (biotinylated); purchased Accelegan Inc

KRas^G12V = molecular target: T3, KRas^G12V (Homo sapiens, UniProt P01116, G12V); assay: KRas binding assay (TR-FRET tracer displacement), KRas G12V
T3 construct: Biotinylated KRas (corresponding to amino acids 1-169, produced at Accelegan Inc.); biotin (biotinylated); purchased Accelegan Inc

[1] = tested on: KRas-mediated phosphorylation of ERK in MKN1 cells; assay: Inhibition of KRas-mediated phosphorylation of ERK (Cisbio HTRF pERK), MKN1 cells; format: cell-based; conditions: Homo sapiens, MKN-1
Description: (§1) Inhibition of KRas Phosphorylation of ERK (HTRF) by Exemplary Compounds of Formula (I)
(§2) Cisbio HTRF Advanced PERK Assay Catalog #64AERPEH
(§3) Day 1: Seed 6,000 cells/well-25 μl/well in 384-well white solid bottom plate; RPM1_10% FBS. Incubate overnight at 37° C./5% CO2.
(§4) Incubate for 4 hours at room temperature covered.
(§5) Read HTRF using ClarioStar

[2] = tested on: KRas-mediated phosphorylation of ERK in PSN1 cells; assay: Inhibition of KRas-mediated phosphorylation of ERK (Cisbio HTRF pERK), PSN1 cells; format: cell-based; conditions: Homo sapiens
Description: as §1, §2, §3, §4, §5

[3] = tested on: KRas-mediated phosphorylation of ERK in AsPC-1 cells; assay: Inhibition of KRas-mediated phosphorylation of ERK (Cisbio HTRF pERK), AsPC-1 cells; format: cell-based; conditions: Homo sapiens, ASPC1, AsPC-1 cells; HTRF pERK
In short: (§6)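 Compound treatment lasts 3 hrs on 6,000 seeded cells, testing 10 doses from a 10 uM top concentration in 3-fold decrements at 0.8% final DMSO. Trametinib at 0.2 uM defines the Min signal. Detection is HTRF on cold-lysed cell extracts.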

[4] = tested on: KRas-mediated phosphorylation of ERK in H727 cells; assay: Inhibition of KRas-mediated phosphorylation of ERK (Cisbio HTRF pERK), H727 cells; format: cell-based; conditions: Homo sapiens, NCI-H727, H727 cells; HTRF pERK
In short: as §6

T1 sequence (P01116 1-169 isoform P01116-2 G12D): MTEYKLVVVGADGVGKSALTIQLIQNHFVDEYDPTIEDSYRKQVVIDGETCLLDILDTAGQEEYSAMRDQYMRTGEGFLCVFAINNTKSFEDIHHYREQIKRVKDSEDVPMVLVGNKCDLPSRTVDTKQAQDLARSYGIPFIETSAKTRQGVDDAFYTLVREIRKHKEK
T2 sequence (P01116 1-169 isoform P01116-2 G12R): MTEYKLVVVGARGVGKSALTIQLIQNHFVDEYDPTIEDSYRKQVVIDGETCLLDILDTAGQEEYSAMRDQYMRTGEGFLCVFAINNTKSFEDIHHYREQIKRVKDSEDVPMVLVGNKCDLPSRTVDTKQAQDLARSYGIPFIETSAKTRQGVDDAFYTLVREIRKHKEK
T3 sequence (P01116 1-169 isoform P01116-2 G12V): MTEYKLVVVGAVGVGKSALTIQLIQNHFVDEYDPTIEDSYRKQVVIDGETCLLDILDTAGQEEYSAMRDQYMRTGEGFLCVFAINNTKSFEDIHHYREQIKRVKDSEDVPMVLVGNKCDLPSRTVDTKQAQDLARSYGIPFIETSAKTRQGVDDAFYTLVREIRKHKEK

| Structure (SMILES) | IC50 (KRas^G12D) | IC50 (KRas^G12R) | IC50 (KRas^G12V) | IC50 [1] | IC50 [2] | IC50 [3] | IC50 [4] |
| --- | --- | --- | --- | --- | --- | --- | --- |
| CCc1c(F)ccc2cc(O)cc(-c3ncc4c(N5CCCCC(S(N)(=O)=O)C5)nc(OC[C@@]56CCCN5C[C@H](F)C6)nc4c3F)c12 (stereo partly drawn) [Example 633, 1-(7-(8-ethyl-7-fluoro-3-hydroxynaphthalen-1-yl)-8-fluoro-2-(((2R,7aS)-2-fluorohexahydro-1H-pyrrolizin-7a-yl)methoxy)pyrido[4,3-d]pyrimidin-4-yl)azepane-3-sulfonamide] | 8850 nM | 6610 nM | 2820 nM | > 10000 nM | > 10000 nM | > 10000 nM | > 10000 nM |
| CCc1c(F)ccc2cc(O)cc(-c3ncc4c(NCC5(C)CNS(=O)(=O)N5)nc(OC[C@@]56CCCN5C[C@H](F)C6)nc4c3F)c12 (stereo partly drawn) [Example 609, 3-(((7-(8-ethyl-7-fluoro-3-hydroxynaphthalen-1-yl)-8-fluoro-2-(((2R,7aS)-2-fluorohexahydro-1H-pyrrolizin-7a-yl)methoxy)pyrido[4,3-d]pyrimidin-4-yl)amino)methyl)-3-methyl-1,2,5-thiadiazolidine 1,1-dioxide] | < 2 nM | < 2 nM | < 2 nM | 92 nM | > 10000 nM | 1390 nM | 880 nM |
| CCc1c(F)ccc2cc(O)cc(-c3ncc4c(N5CCCC6(C[C@H](O)[C@H](O)CO6)C5)nc(OC[C@@]56CCCN5C[C@H](F)C6)nc4c3F)c12 (stereo partly drawn) [Example 642, (3R,4S)-8-(7-(8-ethyl-7-fluoro-3-hydroxynaphthalen-1-yl)-8-fluoro-2-(((2R,7aS)-2-fluorohexahydro-1H-pyrrolizin-7a-yl)methoxy)pyrido[4,3-d]pyrimidin-4-yl)-1-oxa-8-azaspiro[5.5]undecane-3,4-diol] | 864 nM | 195 nM | 235 nM | 2870 nM | > 10000 nM | > 10000 nM | > 10000 nM |
| C#Cc1c(F)ccc2cc(O)cc(-c3ncc4c(N5CCC[C@@](C)(O)C5)nc(OC[C@]56CCCN5[C@H](CO)CC6)nc4c3F)c12 [Example 814, (R)-1-(7-(8-ethynyl-7-fluoro-3-hydroxynaphthalen-1-yl)-8-fluoro-2-(((3S,7aR)-3-(hydroxymethyl)tetrahydro-1H-pyrrolizin-7a(5H)-yl)methoxy)pyrido[4,3-d]pyrimidin-4-yl)-3-methylpiperidin-3-ol] | < 2 nM | 3 nM | < 2 nM | 176 nM | > 10000 nM | 485 nM | 402 nM |
| CCc1c(F)ccc2cc(O)cc(-c3ncc4c(N5CC6CCCC(C6)C5)nc(OC[C@@]56CCCN5C[C@H](F)C6)nc4c3F)c12 [Example 551, 4-(4-(3-azabicyclo[3.3.1]nonan-3-yl)-8-fluoro-2-(((2R,7aS)-2-fluorotetrahydro-1H-pyrrolizin-7a(5H)-yl)methoxy)pyrido[4,3-d]pyrimidin-7-yl)-5-ethyl-6-fluoronaphthalen-2-ol] | 127 nM | 27 nM | 32 nM | 1460 nM | > 10000 nM | 2500 nM | 814 nM |
| CCc1c(F)ccc2cc(O)cc(-c3ncc4c(NCc5cnn(C(=O)N(C)C)c5N)nc(OC[C@@]56CCCN5C[C@H](F)C6)nc4c3F)c12 [Example 640, 5-amino-4-(((7-(8-ethyl-7-fluoro-3-hydroxynaphthalen-1-yl)-8-fluoro-2-(((2R,7aS)-2-fluorohexahydro-1H-pyrrolizin-7a-yl)methoxy)pyrido[4,3-d]pyrimidin-4-yl)amino)methyl)-N,N-dimethyl-1H-pyrazole-1-carboxamide] | 83 nM | 17 nM | 16 nM | 208 nM | > 10000 nM | 5130 nM | 889 nM |
| CCc1c(F)ccc2cc(O)cc(-c3ncc4c(N5CCC(c6ccc(=O)[nH]n6)C5)nc(OC[C@@]56CCCN5C[C@H](F)C6)nc4c3F)c12 (stereo partly drawn) [Example 608, 6-(1-(7-(8-ethyl-7-fluoro-3-hydroxynaphthalen-1-yl)-8-fluoro-2-(((2R,7aS)-2-fluorotetrahydro-1H-pyrrolizin-7a(5H)-yl)methoxy)pyrido[4,3-d]pyrimidin-4-yl)pyrrolidin-3-yl)pyridazin-3 (2H)-one] | 1250 nM | 267 nM | 88 nM | > 10000 nM | > 10000 nM | > 10000 nM | > 10000 nM |
| CCc1c(F)ccc2cc(O)cc(-c3ncc4c(N[C@H](C)c5cc(C(=O)N(C)C)nn5C)nc(OC[C@@]56CCCN5C[C@H](F)C6)nc4c3F)c12 [Example 651, 5-((R)-1-((7-(8-ethyl-7-fluoro-3-hydroxynaphthalen-1-yl)-8-fluoro-2-(((2R,7aS)-2-fluorohexahydro-1H-pyrrolizin-7a-yl)methoxy)pyrido[4,3-d]pyrimidin-4-yl)amino)ethyl)-N,N,1-trimethyl-1H-pyrazole-3-carboxamide] | 30 nM | 15 nM | 10 nM | 546 nM | > 10000 nM | 1460 nM | 1790 nM |
| Oc1cc(-c2ncc3c(N4C[C@@H]5C[C@H](C4)[C@H](O)C5)nc(OC[C@@]45CCCN4C[C@H](F)C5)nc3c2F)c2cc(C(F)(F)F)ccc2c1 [Example 817, (1R,5R,6R)-3-(8-fluoro-2-(((2R,7aS)-2-fluorotetrahydro-1H-pyrrolizin-7a(5H)-yl)methoxy)-7-(3-hydroxy-7-(trifluoromethyl)naphthalen-1-yl)pyrido[4,3-d]pyrimidin-4-yl)-3-azabicyclo[3.2.1]octan-6-ol] | 5 nM | 2 nM | < 2 nM | 50 nM | 5110 nM | 188 nM | 43 nM |
| CCc1c(F)ccc2cc(O)cc(-c3ncc4c(N5CCCC6(CCS6)C5)nc(OC[C@@]56CCCN5C[C@H](F)C6)nc4c3F)c12 (stereo partly drawn) [Example 838, 5-ethyl-6-fluoro-4-(8-fluoro-2-(((2R,7aS)-2-fluorotetrahydro-1H-pyrrolizin-7a(5H)-yl)methoxy)-4-(1-thia-6-azaspiro[3.5]nonan-6-yl)pyrido[4,3-d]pyrimidin-7-yl)naphthalen-2-ol] | 16 nM | 15 nM | 10 nM | 222 nM | > 10000 nM | 508 nM | 1030 nM |
| CCc1c(F)ccc2cc(O)cc(-c3ncc4c(N5CCCS(=O)(=O)CC5)nc(OC[C@@]56CCCN5C[C@H](F)C6)nc4c3F)c12 [Example 583, 4-(7-(8-ethyl-7-fluoro-3-hydroxynaphthalen-1-yl)-8-fluoro-2-(((2R,7aS)-2-fluorohexahydro-1H-pyrrolizin-7a-yl)methoxy)pyrido[4,3-d]pyrimidin-4-yl)-1,4-thiazepane 1,1-dioxide] | 33 nM | 3 nM | 14 nM | 312 nM | > 10000 nM | 5380 nM | 2500 nM |
| CCc1c(F)ccc2cc(O)cc(-c3ncc4c(N5CC6CCC(CC6)C5)nc(OC[C@@]56CCCN5C[C@H](F)C6)nc4c3F)c12 [Example 844, 4-(4-(3-azabicyclo[3.2.2]nonan-3-yl)-8-fluoro-2-(((2R,7aS)-2-fluorotetrahydro-1H-pyrrolizin-7a(5H)-yl)methoxy)pyrido[4,3-d]pyrimidin-7-yl)-5-ethyl-6-fluoronaphthalen-2-ol] | 103 nM | 46 nM | 35 nM | 198 nM | > 10000 nM | 3330 nM | 2900 nM |

From US20260015350A1, “AZAQUINAZOLINE PAN-KRAS INHIBITORS” (Mirati Therapeutics, Inc., priority 2022, published 2026)
